Values joined by “and” are separate entries in the source; they are usually repeats but may differ in a detail not shown here. Identical values can stand only once.
Experiments:
in vivo = experiment: in vivo; set-up: species or system cynomolgus monkeys; settings: cynomolgus monkey, sc
Protocol: Eleven adult female cynomolgus monkeys having regular and presumably ovulatory menstrual cycles were entered into the study. Body weights were determined monthly. Menstrual bleeding and spotting were recorded daily by visual inspection of external genitalia and insertion of vaginal swabs using a saline moistened cotton-tipped applicator, respectively. Blood samples were collected from femoral vessels and the serum stored for subsequent RIA of estradiol and progesterone. Coefficients of variation for these assays were: 7.4 and 11.1; and 7.0 and 10.9%, respectively, for within and between assays. The GnRH antagonist ([…]) used was Nal-Glu: [[…]. The design was progressive in that all eleven monkeys initially received […] at 0.05 mg/kg starting on day 2 of the menstrual cycle and continuing daily until results of the progesterone challenge test and estradiol levels in circulation indicated the need to raise the dose. Concurrently, a pair of progesterone-loaded silastic implants were inserted sc during […] treatment from day 20 and 30, and then removed. If withdrawal menses occurred during the next week, the individual Nal-Glu dose was raised to 0.1 mg/kg daily. On […] treatment day 50, the 10 day progesterone challenge test was repeated for all monkeys. […] Again, amenorrhea or withdrawal menses was recorded. […]

pituitary-ovarian axis = settings: sufficient single dose; monkeys; cited from earlier work
[1] = test system: ovarian estrogen secretion; experiment: Part I dose-finding study: RIA of serum estradiol during 14 days of daily im treatment; format: in vivo, cynomolgus monkeys; settings: 0.1 mg/kg im daily; some individual primates, predominately
Protocol: (§1) Eleven adult female cynomolgus monkeys having regular and presumably ovulatory menstrual cycles were entered into the study. Body weights were determined monthly. Menstrual bleeding and spotting were recorded daily by visual inspection of external genitalia and insertion of vaginal swabs using a saline moistened cotton-tipped applicator, respectively. Blood samples were collected from femoral vessels and the serum stored for subsequent RIA of estradiol and progesterone. Coefficients of variation for these assays were: 7.4 and 11.1; and 7.0 and 10.9%, respectively, for within and between assays. The GnRH antagonist (GnRHant) used was Nal-Glu: [Ac-D2NAL, 4ClDPhe^2, D3Pal^3, Arg^5, DGlu^6(AA), DAla^10]-GnRH.
In Part I of the study, the object was to perform a brief dose-finding study that indicated residual serum estradiol levels in intact primates previously illustrating regular menstrual cycles. Specifically sought was an approximation of the minimal daily im dose of Nal-Glu sufficient to suppress circulating estradiol levels into the target range: less than 45 pg/ml but more than 35 pg/ml. Beginning on day 2 of the menstrual cycle, Nal-Glu GnRHant, suspended in sesame oil, was administered between 9 and 10 am in doses of 0.1 (n = 5) and 0.3 mg/kg (n = 6) for 14 days. Femoral blood was obtained daily under ketamine anesthesia. […]

[2] = test system: ovarian estrogen secretion; experiment: Part II individualized dose titering: RIA of serum estradiol every 10 days; format: in vivo, cynomolgus monkeys
Protocol: as §1
(§2) After a 60 day wash-out interval, the Part II experimental design had two objectives: 1) attempt to titer the GnRHant dose to individual monkeys so that residual ovarian estrogen secretion was often within the target range (estradiol at 35 to 45 pg/ml) in as many of the blood samples as possible; and 2) perform periodic progesterone challenge tests wherein withdrawal bleeding indicates significant estrogen-induced endometrial proliferation (i.e. excessive estrogenic influence) versus amenorrhea (the absence of progesterone withdrawal bleeding) as an indicator that the GnRHant dose and, in turn, the tonic ovarian estrogen production was indicative of a controlled estrogenic milieu.
(§3) The design was progressive in that all eleven monkeys initially received Nal-Glu GnRHant at 0.05 mg/kg starting on day 2 of the menstrual cycle and continuing daily until results of the progesterone challenge test and estradiol levels in circulation indicated the need to raise the dose. Concurrently, a pair of progesterone-loaded silastic implants were inserted sc during GnRHant treatment from day 20 and 30, and then removed. If withdrawal menses occurred during the next week, the individual Nal-Glu dose was raised to 0.1 mg/kg daily. On GnRHant treatment day 50, the 10 day progesterone challenge test was repeated for all monkeys. Those primates who were amenorrheic remained on this dose of Nal-Glu; any "bleeders" were to be shifted to a higher dose of GnRHant at 0.2 mg/kg daily through treatment day 90, with the final progesterone challenge test given to all monkeys on days 80 to 90. Again, amenorrhea or withdrawal menses was recorded.
Femoral blood samples were collected every 10 days through the study for RIA of estradiol and progesterone.

[3] = test system: estrogen-induced endometrial proliferation; experiment: Progesterone challenge test (withdrawal bleeding versus amenorrhea, spotting); format: in vivo, cynomolgus monkeys
Protocol: as §1, §2, §3
For definition, withdrawal bleeding was scored when blood was on the external genitalia for two or more consecutive days within the week following progesterone withdrawal. Spotting was scored when blood was evident only by coloration of the cotton swab upon insertion into the vagina.

CC(=O)[C@H]1CC[C@H]2[C@@H]3CCC4=CC(=O)CC[C@]4(C)[C@H]3CC[C@]12C [progesterone]
concentration at 240 h (in vivo): 6.4 ± 0.6 ng/mL

D-Ac-D-2-Nal^1-DpClPhe^2-D-3-Pal^3-Ser^4-NiLys^5-D-NicLys^6-Leu^7-ILys^8-Pro^9-D-Ala^10 [antide]
effect on the pituitary-ovarian axis (pituitary-ovarian axis): immediate and sustained inhibition of the pituitary-ovarian axis

[Ac-D2NAL, 4ClDPhe^2, D3Pal^3, Arg^5, DGlu^6(AA), DAla^10]-GnRH [Nal-Glu]
serum estradiols [1]: < 25 pg/mL
mean serum estradiol levels ([2]; 0.05 mg/kg im daily, the two primates with withdrawal amenorrhea, target zone 35 to 45 pg/ml): in or near the target zone
estradiol suppression ([2]; 0.2 mg/kg im daily, the lone resistant monkey): under 20 pg/ml
mean circulating estradiol levels ([2]; at third progesterone challenge test, all females except the one given 0.2 mg/kg im daily, target zone 35 to 45 pg/ml): in or near the target zone
mean serum estradiol concentrations ([2]; dose raised to 0.1 mg/kg im daily from day 31, 8 monkeys): approximately 40 pg/ml
monkeys achieving withdrawal amenorrhea ([3]; second progesterone challenge test, only the monkeys raised to 0.1 mg/kg im daily): 8 of 9
Incidence of Spotting ([3]; week of progesterone withdrawal days 31-37): 13 days
Amenorrhea Achieved ([3]; week of progesterone withdrawal days 31-37, first challenge, all eleven monkeys on 0.05 mg/kg im daily): two and 2/11
Incidence of Spotting ([3]; week of progesterone withdrawal days 61-67): 12 days
Amenorrhea Achieved ([3]; week of progesterone withdrawal days 61-67, second challenge, 0.05 or 0.1 mg/kg im daily): 10/11
Incidence of Spotting ([3]; week of progesterone withdrawal days 91-97): 0 days
Amenorrhea Achieved ([3]; week of progesterone withdrawal days 91-97, third challenge, 0.05, 0.1 or 0.2 mg/kg im daily): eleven and 11/11

Reference: patent EP0769956B1, “USE OF A GnRH ANTAGONIST FOR THE PREPARATION OF A MEDICAMENT FOR THE TREATMENT OF GONADAL-STEROID CONDITIONS” (THE MEDICAL COLLEGE OF HAMPTON ROADS, priority 1994, dated 2000)
